Source: US20220251187A1, “P2X7 RECEPTOR TARGETED THERAPY” (BIOSCEPTRE (AUST) PTY LTD, priority 2019, published 2022)

What was measured:
Type in all cases: cell-based
Kelly cells [1] = experiment: CellTiter-Blue cell viability assay after chemotherapy; conditions: increasing doses, 72 hours, FIG. 1C, 1D
Experimental: (§1) 4,000 cells were seeded in a 96 well plate and allowed to adhere over-night. Cells were then treated with increasing amount of chemotherapy or vehicle control for 72 hours to induce varying amount of cell killing. Cell viability was then measured using CellTiter-Blue Cell Viability Assay form Promega following manufacturer's instruction.

Kelly cells [2] = experiment: nfP2X7 antibody binding to live cells by flow cytometry after chemotherapy; conditions: doxorubicin 0.0625 μM to 0.25 μM or 5 Fu 1 μM to 8 μM, 72 hours, FIG. 2B, 2C
Experimental: (§2) 500,000 cells were seeded in a 6 well plate and allowed to adhere over-night. Cells were then treated with increasing amount of chemotherapy or vehicle control for 72 hours to induce varying amount of cell killing. The remaining live cells were dissociated in PBS based enzyme-free dissociation buffer, washed and re-suspended in staining buffer (PBS, 2% FCS). Cells were then stained for 1 h with primary antibody raised against non-functional P2X7 (here 2-2-1hFc), washed 3 times in staining buffer prior to a 1 h incubation with fluorescently coupled secondary antibody and 7AAD. Fluorescence staining on live cells was acquired using a BD Accuri flow cytometer and analysed with FlowJo-flow cytometry analysis software. Median fluorescence intensity of the live cell population was analysed using 7AAD live dead staining.

P2X7 receptor = experiment: nfP2X7 induction by Condition Media from Doxorubicin treated RPMI-8226 cells with P2X7 inhibitor; conditions: Condition Media from RPMI-8226 treated with Doxorubicin; FIG. 6b
[3] = test system: myeloma RPMI-8226 cell line; experiment: Ethidium influx in response to BzATP stimulation (P2X7 pore opening); conditions: 0.5 mM BzATP, FIG. 1A
Experimental: Normalised ethidium influx in response to 0.5 mM BzATP stimulation in the myeloma RPMI-8226 and neuroblastoma Kelly cell lines. Mean of three independent experiments is shown.

RPMI-8226 cells [4] = experiment: CellTiter-Blue cell viability assay after chemotherapy; conditions: increasing doses, 72 hours, FIG. 1B
Experimental: as §1

RPMI-8226 cells [5] = experiment: nfP2X7 antibody binding to live cells by flow cytometry after chemotherapy; conditions: doxorubicin 0.0625 μM to 0.25 μM, 72 hours, FIG. 2A
Experimental: as §2

nfP2X7 = experiment: HMGB1-driven increase in nfP2X7; conditions: FIG. 6a

O=c1[nH]cc(F)c(=O)[nH]1 [5 Fu, Fluorouracil]
Effect on cell viability (CTB assay) (Kelly cells [1]): cell death
Effect on nfP2X7 antibody binding to live cells (Kelly cells [2]): increased nfPX7 antibody binding

COc1ccc(CC(=O)NC(N=C(NC#N)Nc2cccc3ncccc23)C(C)(C)C)cc1OC (stereo not drawn) [A 740003, N-[1-[[(Cyanoamino)(5-quinolinylamino)methylene]amino]-2,2-dimethylpropyl]-3,4-dimethoxybenzeneacetamide]
Block of conditioned media induced nfP2X7 induction (P2X7 receptor): does not block

Nc1ncnc2c1ncn2[C@@H]1O[C@H](COP(=O)(O)OP(=O)(O)OP(=O)(O)O)[C@@H](OC(=O)c2ccc(C(=O)c3ccccc3)cc2)[C@H]1O [BzATP]
P2X7 pore opening (normalised ethidium influx) [3]: able to open the P2X7 pore

COc1cccc2c1C(=O)c1c(O)c3c(c(O)c1C2=O)C[C@@](O)(C(=O)CO)C[C@@H]3O[C@H]1C[C@H](N)[C@H](O)[C@H](C)O1 [Doxorubicin]
Effect on cell viability (CTB assay) (Kelly cells [1]): cell death
Effect on cell viability (CTB assay) (RPMI-8226 cells [4]): cell death
Effect on nfP2X7 antibody binding to live cells (Kelly cells [2]): increased nfPX7 antibody binding
Effect on nfP2X7 antibody binding to live cells (RPMI-8226 cells [5]): increased nfPX7 antibody binding

B1: HMGB1: DAMP released by chemo- and radio-therapy (protein, UniProt P09429 1-215, looked up)
High mobility group protein B1: MGKGDPKKPRGKMSSYAFFVQTCREEHKKKHPDASVNFSEFSKKCSERWKTMSAKEKGKFEDMAKADKARYEREMKTYIPPKGETKKKFKDPNAPKRPPSAFFLFCSEYRPKIKGEHPGLSIGDVAKKLGEMWNNTAADDKQPYEKKAAKLKEKYEKDIAAYRAKGKPDAAKKGVVKAEKSKKKKEEEEDEEDEEDEEEEEDEEDEDEEEDDDDE
Effect on nfP2X7 level (nfP2X7): drives the increase in nfP2X7
